Activity calls are given as the source filed them. The calls are words filed in the database; no cut-off is given here.
How the values were obtained:
D(1A) dopamine receptor [1] = molecular target: T1, D(1A) dopamine receptor (Homo sapiens, UniProt P21728); test: Displacement of [3H]SCH-23390 from human cloned D1 dopamine receptor incubated for 90 mins by radioligand binding assay
D(2) dopamine receptor [2] = molecular target: T2, D(2) dopamine receptor (Homo sapiens, UniProt P14416); test: Displacement of [3H]spiperone from human cloned D2 dopamine receptor incubated for 90 mins by radioligand binding assay
D(3) dopamine receptor [3] = molecular target: T3, D(3) dopamine receptor (Homo sapiens, UniProt P35462); test: Binding affinity to human cloned D3 dopamine receptor incubated for 90 mins by radioligand binding assay
D(4) dopamine receptor [4] = molecular target: T4, D(4) dopamine receptor (Homo sapiens, UniProt P21917); test: Binding affinity to human cloned D4 dopamine receptor incubated for 90 mins by radioligand binding assay
T4 sequence (P21917 whole entry): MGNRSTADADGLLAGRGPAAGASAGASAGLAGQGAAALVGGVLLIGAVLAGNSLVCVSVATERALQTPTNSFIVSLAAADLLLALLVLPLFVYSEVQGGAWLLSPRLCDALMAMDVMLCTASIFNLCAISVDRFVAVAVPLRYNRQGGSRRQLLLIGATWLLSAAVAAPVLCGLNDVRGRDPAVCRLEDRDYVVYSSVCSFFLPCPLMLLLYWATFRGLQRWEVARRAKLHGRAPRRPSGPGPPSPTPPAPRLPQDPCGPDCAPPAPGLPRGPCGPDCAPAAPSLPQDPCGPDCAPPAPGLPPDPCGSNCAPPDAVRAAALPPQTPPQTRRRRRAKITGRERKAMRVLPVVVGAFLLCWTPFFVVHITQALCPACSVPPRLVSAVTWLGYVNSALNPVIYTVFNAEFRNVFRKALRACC

D(1B) dopamine receptor [5] = molecular target: T5, D(1B) dopamine receptor (Homo sapiens, UniProt P21918); test: Binding affinity to human cloned D5 dopamine receptor incubated for 90 mins by radioligand binding assay
D(1A) dopamine receptor [6] = molecular target: T1, D(1A) dopamine receptor; test: Antagonist activity at human D1 dopamine receptor expressed in HEK293 cells assessed as inhibition of SKF38393-induced intracellular calcium level preincubated at 10 uM by oregon green staining based microplate fluorescence reader analysis; format: functional, cell-based
D(2) dopamine receptor [7] = molecular target: T2, D(2) dopamine receptor; test: Antagonist activity at human D2L dopamine receptor expressed in HEK293 cells assessed as inhibition of quinpirole-induced intracellular calcium level preincubated at 10 uM by oregon green staining based microplate fluorescence reader analysis; format: functional, cell-based
D(1B) dopamine receptor [8] = molecular target: T5, D(1B) dopamine receptor; test: Antagonist activity at human D5 dopamine receptor expressed in HEK293 cells assessed as inhibition of SKF38393-induced intracellular calcium level preincubated at 10 uM by oregon green staining based microplate fluorescence reader analysis; format: functional, cell-based
Homo sapiens = organism: Homo sapiens; test: Selectivity index, ratio of Ki for human cloned D1 dopamine receptor to Ki for human cloned D5 dopamine receptor
D(1B) dopamine receptor [9] = molecular target: T5, D(1B) dopamine receptor; test: Displacement of [3H]SCH-23390 from human cloned D5 dopamine receptor expressed in HEKT cells incubated for 90 mins by scintillation counting based radioligand binding assay; format: cell-based
D(1A) dopamine receptor [10] = molecular target: T1, D(1A) dopamine receptor; test: Displacement of [3H]SCH-23390 from human cloned D1 dopamine receptor expressed in HEKT cells incubated for 90 mins by scintillation counting based radioligand binding assay; format: cell-based
D(3) dopamine receptor [11] = molecular target: T3, D(3) dopamine receptor; test: Displacement of [3H]N-methylspiperone from human cloned D3 dopamine receptor expressed in HEKT cells incubated for 90 mins by scintillation counting based radioligand binding assay; format: cell-based
D(4) dopamine receptor [12] = molecular target: T4, D(4) dopamine receptor

T3 sequence (P35462 whole entry): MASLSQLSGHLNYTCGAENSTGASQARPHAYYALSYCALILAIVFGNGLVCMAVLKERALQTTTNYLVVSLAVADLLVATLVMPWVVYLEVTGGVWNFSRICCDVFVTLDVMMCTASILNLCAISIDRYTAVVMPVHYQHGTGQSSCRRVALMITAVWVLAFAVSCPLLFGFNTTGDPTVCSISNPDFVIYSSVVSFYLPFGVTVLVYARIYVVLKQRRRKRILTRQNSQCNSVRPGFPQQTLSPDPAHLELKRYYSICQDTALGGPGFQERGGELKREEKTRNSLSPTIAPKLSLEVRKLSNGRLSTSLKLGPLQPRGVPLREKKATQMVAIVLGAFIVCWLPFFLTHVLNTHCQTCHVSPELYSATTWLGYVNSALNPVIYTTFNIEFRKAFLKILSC
T1 sequence (P21728 whole entry): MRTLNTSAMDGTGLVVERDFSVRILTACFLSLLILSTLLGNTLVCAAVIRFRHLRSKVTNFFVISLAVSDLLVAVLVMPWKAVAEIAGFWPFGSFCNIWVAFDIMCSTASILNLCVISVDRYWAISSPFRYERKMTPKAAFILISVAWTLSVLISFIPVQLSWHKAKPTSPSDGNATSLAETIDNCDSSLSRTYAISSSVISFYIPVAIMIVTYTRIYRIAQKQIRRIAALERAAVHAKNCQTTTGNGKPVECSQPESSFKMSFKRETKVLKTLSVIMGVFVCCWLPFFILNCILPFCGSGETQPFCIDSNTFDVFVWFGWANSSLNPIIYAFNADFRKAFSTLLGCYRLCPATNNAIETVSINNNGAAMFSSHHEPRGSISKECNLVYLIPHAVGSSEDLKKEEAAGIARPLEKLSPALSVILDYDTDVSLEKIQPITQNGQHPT
T5 sequence (P21918 whole entry): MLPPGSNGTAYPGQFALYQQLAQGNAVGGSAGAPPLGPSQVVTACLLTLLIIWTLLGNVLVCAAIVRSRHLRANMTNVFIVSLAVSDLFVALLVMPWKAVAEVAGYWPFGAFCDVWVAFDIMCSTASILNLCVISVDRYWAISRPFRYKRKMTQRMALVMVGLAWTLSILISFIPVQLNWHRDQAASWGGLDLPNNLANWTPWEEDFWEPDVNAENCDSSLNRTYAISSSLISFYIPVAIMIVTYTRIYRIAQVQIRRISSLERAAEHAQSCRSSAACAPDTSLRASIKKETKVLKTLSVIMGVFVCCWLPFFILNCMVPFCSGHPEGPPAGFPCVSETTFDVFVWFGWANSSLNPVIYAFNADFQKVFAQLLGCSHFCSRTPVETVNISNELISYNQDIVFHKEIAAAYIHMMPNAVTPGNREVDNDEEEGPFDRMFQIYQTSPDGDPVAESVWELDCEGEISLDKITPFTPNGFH
T2 sequence (P14416 whole entry): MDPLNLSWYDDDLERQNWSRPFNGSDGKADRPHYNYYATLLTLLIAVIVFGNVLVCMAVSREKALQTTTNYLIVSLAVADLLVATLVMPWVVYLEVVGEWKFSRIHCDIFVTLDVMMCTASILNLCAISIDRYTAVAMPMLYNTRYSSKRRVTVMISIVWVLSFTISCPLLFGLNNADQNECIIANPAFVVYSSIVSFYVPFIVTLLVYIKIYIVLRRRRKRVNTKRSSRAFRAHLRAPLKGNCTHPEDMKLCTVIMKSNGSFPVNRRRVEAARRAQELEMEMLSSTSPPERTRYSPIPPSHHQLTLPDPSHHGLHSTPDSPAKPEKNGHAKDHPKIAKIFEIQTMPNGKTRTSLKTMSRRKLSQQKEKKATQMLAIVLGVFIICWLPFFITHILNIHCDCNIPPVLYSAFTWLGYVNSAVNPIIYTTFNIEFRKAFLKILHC

Row | Structure (SMILES) | Ki (D(1A) dopamine receptor [1]) [nM] | Ki (D(2) dopamine receptor [2]) [nM] | Ki (D(3) dopamine receptor [3]) [nM] | Ki (D(4) dopamine receptor [4]) [nM] | Ki (D(1B) dopamine receptor [5]) [nM] | inhibition (D(1A) dopamine receptor [6]) | inhibition (D(2) dopamine receptor [7]) | inhibition (D(1B) dopamine receptor [8]) | Ratio Ki (Homo sapiens) | Ki (D(1A) dopamine receptor [10]) [nM] | Ki (D(3) dopamine receptor [11]) [nM] | Ki (D(4) dopamine receptor [12]) [nM] | Ki (D(1B) dopamine receptor [9]) [nM]
1 | Cc1cc2c(s1)Nc1ccccc1N=C2N1CCN(C)CC1 [OLANZAPINE] |  |  |  |  |  |  |  |  |  |  |  |  | 90
2 | CN1CC2c3ccccc3Oc3ccc(Cl)cc3C2C1 (configuration not stated) [ASENAPINE] |  |  |  |  |  |  |  |  |  | 8.9 | 9.4 | 9 | 
3 | CCOC(=O)N1CCc2ccccc2Cc2sccc2CC1 | > 1000 | > 1000 | > 1000 | > 1000 | > 1000 |  |  |  |  |  |  |  | 

Further lines, with some results ahead:

Row | Ki (D(1A) dopamine receptor [1]) [nM] | Ki (D(2) dopamine receptor [2]) [nM] | Ki (D(3) dopamine receptor [3]) [nM] | Ki (D(4) dopamine receptor [4]) [nM] | Ki (D(1B) dopamine receptor [5]) [nM] | inhibition (D(1A) dopamine receptor [6]) | inhibition (D(2) dopamine receptor [7]) | inhibition (D(1B) dopamine receptor [8]) | Ratio Ki (Homo sapiens) | Ki (D(1A) dopamine receptor [10]) [nM] | Ki (D(3) dopamine receptor [11]) [nM] | Ki (D(4) dopamine receptor [12]) [nM] | Structure (SMILES) | Ki (D(1B) dopamine receptor [9]) [nM]
4 | 40 | 1.5 | 18 | 72 | 1.9 | Active | Active | Active | 20 |  |  |  | CN1CCc2ccccc2Cc2sc3ccccc3c2CC1 | 
5 | > 1000 | > 1000 | > 1000 | > 1000 | > 1000 |  |  |  |  |  |  |  | CCOC(=O)N1CCc2ccccc2Cc2sc3ccccc3c2CC1 | 
6 | > 1000 | > 1000 | > 1000 | > 1000 | > 1000 |  |  |  |  |  |  |  | CCOC(=O)N1CCc2ccccc2Cc2ccsc2CC1 | 
7 | 60 | 45 | 24 | 188 | 3 | Active | Active | Active | 20 |  |  |  | CN1CCc2ccccc2Cc2sccc2CC1 | 

From ChEMBL document CHEMBL3751719, “D1-like receptors distinguishing thieno-azecine regioisomers” (Medchemcomm, 2015)
